From patent US8044198B2, “Sirtuin modulating compounds” (Sirtris Pharmaceuticals, Inc., priority 2005, dated 2011)

Target: T1, SIRT1 (Homo sapiens, UniProt Q96EB6)
T1 sequence (Q96EB6 1-747): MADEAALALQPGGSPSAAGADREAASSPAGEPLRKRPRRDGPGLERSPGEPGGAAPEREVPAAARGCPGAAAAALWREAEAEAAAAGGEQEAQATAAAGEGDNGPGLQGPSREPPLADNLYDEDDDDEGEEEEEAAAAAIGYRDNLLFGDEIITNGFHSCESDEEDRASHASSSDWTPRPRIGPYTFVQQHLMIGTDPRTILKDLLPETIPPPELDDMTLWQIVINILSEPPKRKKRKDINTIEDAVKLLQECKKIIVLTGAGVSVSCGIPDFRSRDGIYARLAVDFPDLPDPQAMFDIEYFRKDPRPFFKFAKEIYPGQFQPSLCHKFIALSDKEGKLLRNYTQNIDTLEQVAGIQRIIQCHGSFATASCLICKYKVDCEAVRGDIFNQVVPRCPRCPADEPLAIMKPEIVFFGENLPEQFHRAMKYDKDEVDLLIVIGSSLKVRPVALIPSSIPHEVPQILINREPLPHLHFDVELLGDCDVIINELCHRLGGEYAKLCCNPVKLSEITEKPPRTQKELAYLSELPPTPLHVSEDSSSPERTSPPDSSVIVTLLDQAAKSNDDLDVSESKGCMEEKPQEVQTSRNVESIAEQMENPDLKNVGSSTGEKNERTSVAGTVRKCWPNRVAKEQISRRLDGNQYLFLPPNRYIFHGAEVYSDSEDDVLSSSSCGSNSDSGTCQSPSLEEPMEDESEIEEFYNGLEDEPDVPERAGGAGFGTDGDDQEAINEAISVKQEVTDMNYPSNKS
Experiment: SIRT1 mass spectrometry (MS) based deacetylation assay; as to FOLD ACT. MS: test concentration or dose not given here
Type: biochemical
Settings: Sirt1 activators; for FOLD ACT. MS: fold activation as determined by MS; for EC50: mass spectrometry assay, read-out: ED50 MS ASSAY

Row | SMILES | FOLD ACT. MS | EC50 [µM]
1 | COc1ccc(C(=O)Nc2ccc(-c3nc4cnccc4s3)s2)c(OC)c1 [Compound 515] | B (B (Fold Activation <250%)) | < 5
2 | CN(C)c1cccc(C(=O)Nc2ccc(-c3nc4cnccc4s3)s2)c1 [Compound 518] | B (B (Fold Activation <250%)) | < 5
3 | CN(C)c1ccc(C(=O)Nc2ccc(-c3nc4cnccc4s3)s2)cc1 [Compound 519] | B (B (Fold Activation <250%)) | < 5
4 | COc1cc(C(=O)Nc2ccc(-c3nc4cnccc4s3)s2)cc(OC)c1OC [Compound 520] | B (B (Fold Activation <250%)) | < 5
5 | COc1cc(OC)cc(C(=O)Nc2ccccc2-c2nc3cccnc3[nH]2)c1 [Compound 521] | B (B (Fold Activation <250%)) | < 5
6 | COc1cc(C(=O)Nc2ccccc2-c2nc3cccnc3[nH]2)cc(OC)c1OC [Compound 522] | A (A (Fold activation >250%)) | 5 to 50
7 | COc1cc(C)ccc1C(=O)Nc1ccccc1-c1nc2cccnc2[nH]1 [Compound 523] | B (B (Fold Activation <250%)) | 5 to 50
8 | CN(C)c1cccc(C(=O)Nc2ccccc2-c2nc3cccnc3[nH]2)c1 [Compound 524] | B (B (Fold Activation <250%)) | < 5
9 | COc1ccc(C(=O)Nc2ccccc2-c2nc3cccnc3[nH]2)cc1OC [Compound 525] | B (B (Fold Activation <250%)) | < 5
10 | O=C(Nc1ccccc1-c1nc2cccnc2[nH]1)c1ccc(N2CCOCC2)cc1 [Compound 526] | A (A (Fold activation >250%)) | < 5
11 | O=C(Nc1ccccc1-c1nc2cccnc2[nH]1)c1ccc(N2CCCCC2)cc1 [Compound 527] | B (B (Fold Activation <250%)) | < 5
12 | COc1ccc(C(=O)Nc2ccccc2-c2nc3cccnc3[nH]2)cc1C(F)(F)F [Compound 528] | B (B (Fold Activation <250%)) | < 5
13 | O=C(Nc1ccccc1-c1nc2cccnc2[nH]1)c1cccc(OC(F)(F)F)c1 [Compound 529] | B (B (Fold Activation <250%)) | < 5
14 | COc1cccc(C(=O)Nc2ccccc2-c2nc3cccnc3[nH]2)c1C [Compound 530] | B (B (Fold Activation <250%)) | < 5
15 | COc1ccc(C(=O)Nc2ccccc2-c2nc3cccnc3[nH]2)cc1 [Compound 531] | B (B (Fold Activation <250%)) | < 5
16 | COc1cccc(C(=O)Nc2ccccc2-c2nc3cccnc3[nH]2)c1 [Compound 532] | B (B (Fold Activation <250%)) | < 5
17 | O=C(Nc1ccccc1-c1nc2cccnc2[nH]1)c1ccccc1 [Compound 533] | B (B (Fold Activation <250%)) | < 5
18 | CN(C)c1ccc(C(=O)Nc2ccccc2-c2nc3cccnc3[nH]2)cc1 [Compound 534] | B (B (Fold Activation <250%)) | < 5
19 | COc1cc(C(=O)Nc2ccccc2-c2nc3cccnc3[nH]2)ccc1CN1CCCC1 [Compound 535] | A (A (Fold activation >250%)) | 5 to 50
20 | COc1cc(C(=O)Nc2ccccc2-c2nc3cccnc3[nH]2)ccc1CN1CCCCC1 [Compound 536] | A (A (Fold activation >250%)) | 5 to 50
21 | COc1cc(C(=O)Nc2ccccc2-c2nc3cccnc3[nH]2)ccc1CN1CCOCC1 [Compound 537] | A (A (Fold activation >250%)) | < 5
22 | COc1cc(C(=O)Nc2ccccc2-c2nc3cccnc3[nH]2)ccc1CN1CCNCC1 [Compound 538] | A (A (Fold activation >250%)) | 5 to 50
23 | COc1cc(C(=O)Nc2ccccc2-c2nc3cccnc3[nH]2)ccc1CN1CCN(C)CC1 [Compound 539] | A (A (Fold activation >250%)) | < 5
24 | COc1cc(C(=O)Nc2ccccc2-c2nc3cccnc3[nH]2)ccc1CN(C)C [Compound 540] | A (A (Fold activation >250%)) | 5 to 50
